Measured values published in the supplement of paper PMC10307832.

Experiments:
Assay in all cases: relative viability (nuclei count vs DMSO), 5 days (fraction); higher = more cells survive
Entinostat + Luminespib = compound: Nc1ccccc1NC(=O)c1ccc(CNC(=O)OCc2cccnc2)cc1 [Entinostat] + CCNC(=O)c1noc(-c2cc(C(C)C)c(O)cc2O)c1-c1ccc(CN2CCOCC2)cc1 [Luminespib] (partner 0.01 µM)
Summary of the method: (§1)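 Dosing by pin tool came one day after lung cancer cell lines were seeded in 1536-well plates, using either one drug or a fixed anchor-drug dose plus five library-drug doses (not always all listed) in √10 steps. After 5 days, nuclei were counted on 4× images. Relative viability is treated-well nuclei count divided by vehicle-well nuclei count, and values are medians of duplicate plates.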

[1] = compound: C1COCCN1C2=NC(=NC3=C2OC4=C3C=CC=N4)C5=CC(=CC=C5)NC(=O)C6=CN=C(C=C6)N + C[C@@H](Oc1cc(-c2cnn(C3CCNCC3)c2)cnc1N)c1c(Cl)ccc(F)c1Cl [Crizotinib] (partner 1 µM)
Summary of the method: as §1

Entinostat + Pemetrexed = compound: Nc1ccccc1NC(=O)c1ccc(CNC(=O)OCc2cccnc2)cc1 [Entinostat] + Nc1nc2[nH]cc(CCc3ccc(C(=O)N[C@@H](CCC(=O)O)C(=O)O)cc3)c2c(=O)[nH]1 [Pemetrexed] (partner 0.2 µM)
Summary of the method: as §1

Entinostat + Pictilisib = compound: Nc1ccccc1NC(=O)c1ccc(CNC(=O)OCc2cccnc2)cc1 [Entinostat] + CS(=O)(=O)N1CCN(Cc2cc3nc(-c4cccc5[nH]ncc45)nc(N4CCOCC4)c3s2)CC1 [Pictilisib] (partner 1 µM)
Summary of the method: as §1

Cell Line: UMC-11
- relative viability (Entinostat + Luminespib; first compound 0.02 µM): 1.06
- relative viability (Entinostat + Luminespib; first compound 0.06325 µM): 1.14
- relative viability (Entinostat + Luminespib; first compound 0.2 µM): 0.937
- relative viability (Entinostat + Luminespib; first compound 0.6325 µM): 0.261
- relative viability (Entinostat + Luminespib; first compound 2 µM): 0.221
- relative viability ([1]; first compound 0.02 µM): 0.564
- relative viability ([1]; first compound 0.06325 µM): 0.59
- relative viability ([1]; first compound 0.2 µM): 0.677
- relative viability ([1]; first compound 0.6325 µM): 0.672
- relative viability ([1]; first compound 2 µM): 0.498
- relative viability (Entinostat + Pemetrexed; first compound 0.02 µM): 0.733
- relative viability (Entinostat + Pemetrexed; first compound 0.06325 µM): 0.738
- relative viability (Entinostat + Pemetrexed; first compound 0.2 µM): 0.5
- relative viability (Entinostat + Pemetrexed; first compound 0.6325 µM): 0.346
- relative viability (Entinostat + Pemetrexed; first compound 2 µM): 0.145
- relative viability (Entinostat + Pictilisib; first compound 0.02 µM): 0.865
- relative viability (Entinostat + Pictilisib; first compound 0.06325 µM): 0.848
- relative viability (Entinostat + Pictilisib; first compound 0.2 µM): 0.836
- relative viability (Entinostat + Pictilisib; first compound 0.6325 µM): 0.144
- relative viability (Entinostat + Pictilisib; first compound 2 µM): 0.136
